Measurements reported in PubChem BioAssay AID449756 (Broad Institute, 2010).
Records with an inconclusive call do not appear.

These molecules were tested on INS-1E rat beta cells, cytokine apoptosis rescue, ATP luminescence 48 h (assay: beta cell apoptosis inhibitors, cytokine rescue, dose response, luminescence, retest (AID 449756)).

Compared with `C=C(C=O)C[C@@H]1C[C@H](O)C2OC3C[C@]4(C)OC5/C=C\CC6OC7C(CC=CCC6OC5CCCC4OC3CC2O1)OC1CC2OC3CC(=O)OC3C[C@@H](C)C[C@@]2(C)OC1C[C@@H]7C` (stereo not given in full), `C#CCOCCOCCOCCNc1nc(N2CCN(C(=O)CCCCCCCCCCNC(=O)[C@H](CCCCN)n3cc(C)nn3)CC2)nc(N2CCN(C(=O)CCCCCCCCCCNC(=O)[C@H](CCCN=C(N)N)n3cc(C[C@@H](C)CC)nn3)CC2)n1` is 3.1-fold higher in AC50: 2.17 µM for the first, 6.66 µM for the second.

`C#CCOCCOCCOCCNc1nc(N2CCN(C(=O)CCCCCCCCCCNC(=O)[C@H]([C@@H](C)CC)n3cc(CCCCCN)nn3)CC2)nc(N2CCN(C(=O)CCCCCCCCCCNC(=O)[C@@H]([C@H](C)O)n3cc(C)nn3)CC2)n1` and `C#CCOCCOCCOCCNc1nc(N2CCN(C(=O)CCCCCCCCCCNC(=O)[C@H](CCCCN)n3cc(C)nn3)CC2)nc(N2CCN(C(=O)CCCCCCCCCCNC(=O)[C@@H]([C@H](C)CC)n3cc(CCCCCN)nn3)CC2)n1` are within 1.5-fold of each other in AC50: 5.76 µM for the first, 5.59 µM for the second.

Going from `C#CCOCCOCCOCCNc1nc(N2CCN(C(=O)CCCCCCCCCCNC(=O)[C@@H](CCSC)n3cc(CCO)nn3)CC2)nc(N2CCN(C(=O)CCCCCCCCCCNC(=O)[C@H]([C@@H](C)CC)n3cc(CCCCCN)nn3)CC2)n1` to `C#CCOCCOCCOCCNc1nc(N2CCN(C(=O)CCCCCCCCCCNC(=O)[C@H]([C@@H](C)CC)n3cc(CCCCN=C(N)N)nn3)CC2)nc(N2CCN(C(=O)CCCCCCCCCCNC(=O)[C@H](CO)n3cc(CCCCCN)nn3)CC2)n1`, the AC50 rises from 3.98 µM to 6.94 µM (1.7-fold).

`C#CCOCCOCCOCCNc1nc(N2CCN(C(=O)CCCCCCCCCCNC(=O)[C@H]([C@@H](C)CC)n3cc(CCCCN=C(N)N)nn3)CC2)nc(N2CCN(C(=O)CCCCCCCCCCNC(=O)[C@H](CCCCN)n3cc(C)nn3)CC2)n1` and `C#CCOCCOCCOCCNc1nc(N2CCN(C(=O)CCCCCCCCCCNC(=O)[C@H]([C@@H](C)CC)n3cc(CCCCCN)nn3)CC2)nc(N2CCN(C(=O)CCCCCCCCCCNC(=O)[C@H]([C@@H](C)CC)n3cc(CCCCN=C(N)N)nn3)CC2)n1` are within 1.5-fold of each other in AC50: 4.96 µM for the first, 4.66 µM for the second.

`C#CCOCCOCCOCCNc1nc(N2CCN(C(=O)CCCCCCCCCCNC(=O)Cn3cc(CCCCCN)nn3)CC2)nc(N2CCN(C(=O)CCCCCCCCCCNC(=O)[C@H]([C@@H](C)CC)n3cc(CCCCN=C(N)N)nn3)CC2)n1` and `C#CCOCCOCCOCCNc1nc(N2CCN(C(=O)CCCCCCCCCCNC(=O)[C@H](CCCCN)n3cc(CCO)nn3)CC2)nc(N2CCN(C(=O)CCCCCCCCCCNC(=O)[C@H](CCCCN)n3cc(C[C@@H](C)CC)nn3)CC2)n1` are within 1.5-fold of each other in AC50: 6.89 µM for the first, 6.27 µM for the second.
